Results reported in paper PMC10873978, “Novel tetrahydroisoquinolines as DHFR and CDK2 inhibitors: synthesis, characterization, anticancer activity and antioxidant properties” (BMC Chemistry, 2024).
Like-named read-outs stand apart in the source and are kept apart here.

Tests used:
[1] = system: A549 cell line; test: In vitro cytotoxic activity, MTT method, A549
Method: (§1) Cell lines: The in vitro human breast cancerous cell line (MCF7), lung cancerous cell lines (A549) and normal cell lines were purchased from Serum and Vaccine formulation in Cairo-Egypt.
(§2) In vitro cytotoxic activity of all synthesized compounds against two human breast cell line (MCF7) and lung cell lines (A549) was evaluated according to the MTT method. Firstly, Growth the cell line medium in 96 well tissue culture plate was injected with 10^5 cells/mL (100 uL/plate well) of the cell line and incubated at 37 °C for 24 h to develop a monolayer sheet then the formed growth medium was poured from 96 well microtiter plates after the confluent sheet of cells. […] Secondly, add 0.1 mL of each concentration tetrahydroisoquinoline sample to each plate. The plates were incubated at 37 °C. Thirdly MTT solution (5 mg/mL in PBS) is prepared. Add 20 µL of MTT solution to each well plates. And shaking in 150 rpm for 5 min, to mix the MTT into the media. Then incubate at (37 °C, 5% CO2) for 1–5 h. Finally read the optical density at 560 nm and subtract background at 620 nm.
(§3) In this work, doxorubicin was used as a positive control drug for comparison with the synthesized compounds under the same experimental conditions.

[2] = system: MCF7 cell line; test: In vitro cytotoxic activity, MTT method, MCF7; assay type: cell-based, human; settings: for IC50: Homo sapiens, MCF7, MCF7 cell line, MTT
Method: as §1, §2, §3

[3] = Homo sapiens, read-out: IC50 ± SD

Compound: COc1cccc2c1C(=O)c1c(O)c3c(c(O)c1C2=O)C[C@@](O)(C(=O)CO)C[C@@H]3O[C@H]1C[C@H](N)[C@H](O)[C@H](C)O1 [Douxrbicin]
- IC50 ([1]; A549): 218 nM
- Toxicity % ([1]; A549, Conc. 0.0487 µMol): 20%
- Viability % ([1]; A549, Conc. 0.0487 µMol): 80%
- Viability % ([1]; A549, Conc. 0.0975 µMol): 73.2%
- Toxicity % ([1]; A549, Conc. 0.195 µMol): 36.33%
- Viability % ([1]; A549, Conc. 0.195 µMol): 63.67%
- Toxicity % ([1]; A549, Conc. 0.391 µMol): 62.45%
- Viability % ([1]; A549, Conc. 0.391 µMol): 37.55%
- Viability % ([1]; A549, Conc. 0.781 µMol): 20.26%
- Toxicity % ([1]; A549, Conc. 1.562 µMol): 89.84%
- Viability % ([1]; A549, Conc. 1.562 µMol): 10.16%
- Toxicity % ([1]; A549, Conc. 3.125 µMol): 93.56%
- Viability % ([1]; A549, Conc. 3.125 µMol): 6.44%
- Toxicity % ([1]; A549, Conc. 6.25 µMol): 95.35%
- Viability % ([1]; A549, Conc. 6.25 µMol): 4.651%
- Toxicity % ([1]; A549, Conc. 12.5 µMol): 97.9%
- Viability % ([1]; A549, Conc. 12.5 µMol): 2.1%
- Toxicity % ([1]; A549, Conc. 25 µMol): 98.9%
- Viability % ([1]; A549, Conc. 25 µMol): 1.1%

Compound: CC(=O)C1C(c2ccc(N(C)C)cc2)c2c(C)nc3sc(C(=O)Nc4ccc(C)cc4)c(N)c3c2CC1(C)O (stereo not shown) [Compound 8b, 7-Acetyl-1-amino-5,8-dimethyl-8-hydroxy-6-(4-N,N-dimethylaminophenyl)-N-(4-tolyl)-6,7,8,9-tetrahydrothieno[2,3-c]isoquinoline-2-carboxamide]
- Toxicity % ([1]; A549, Conc. 0.04875 µMol): 8.929%
- Toxicity % ([1]; A549, Conc. 0.0975 µMol): 10.49%
- Toxicity % ([1]; A549, Conc. 0.195 µMol): 12.58%
- Viability % ([1]; A549, Conc. 0.195 µMol): 87.42%
- Toxicity % ([1]; A549, Conc. 0.391 µMol): 21.42%
- Viability % ([1]; A549, Conc. 0.391 µMol): 78.58%
- Toxicity % ([1]; A549, Conc. 0.781 µMol): 51.95%
- Viability % ([1]; A549, Conc. 0.781 µMol): 48.05%
- Toxicity % ([1]; A549, Conc. 1.562 µMol): 61.42%
- Viability % ([1]; A549, Conc. 1.562 µMol): 38.58%
- Toxicity % ([1]; A549, Conc. 3.125 µMol): 70.69%
- Viability % ([1]; A549, Conc. 3.125 µMol): 29.31%
- Toxicity % ([1]; A549, Conc. 6.25 µMol): 84.3%
- Viability % ([1]; A549, Conc. 6.25 µMol): 15.7%
- Toxicity % ([1]; A549, Conc. 12.5 µMol): 93.25%
- Viability % ([1]; A549, Conc. 12.5 µMol): 6.746%
- Toxicity % ([1]; A549, Conc. 25 µMol): 96.06%
- Viability % ([1]; A549, Conc. 25 µMol): 3.945%
- IC50 [1, 3]: 527 ± 2 nM
- IC50 [2]: 3800 ± 8 nM
- Toxicity % ([2]; MCF7, Conc. 0.0487 µMol): 0.0678%
- Viability % ([2]; MCF7, Conc. 0.0487 µMol): 99.9322%
- Toxicity % ([2]; MCF7, Conc. 0.0975 µMol): 0.1234%
- Viability % ([2]; MCF7, Conc. 0.0975 µMol): 99.8766%
- Toxicity % ([2]; MCF7, Conc. 0.195 µMol): 0.2042%
- Viability % ([2]; MCF7, Conc. 0.195 µMol): 99.8%
- Toxicity % ([2]; MCF7, Conc. 0.391 µMol): -0.2042%
- Viability % ([2]; MCF7, Conc. 0.391 µMol): 100.2%
- Toxicity % ([2]; MCF7, Conc. 0.781 µMol): 2.124%
- Viability % ([2]; MCF7, Conc. 0.781 µMol): 97.88%
- Toxicity % ([2]; MCF7, Conc. 1.562 µMol): 13.36%
- Viability % ([2]; MCF7, Conc. 1.562 µMol): 86.64%
- Toxicity % ([2]; MCF7, Conc. 3.125 µMol): 24.63%
- Viability % ([2]; MCF7, Conc. 3.125 µMol): 75.37%
- Toxicity % ([2]; MCF7, Conc. 6.25 µMol): 60.13%
- Viability % ([2]; MCF7, Conc. 6.25 µMol): 39.87%
- Toxicity % ([2]; MCF7, Conc. 12.5 µMol): 88.07%
- Viability % ([2]; MCF7, Conc. 12.5 µMol): 11.93%
- Toxicity % ([2]; MCF7, Conc. 25 µMol): 96.69%
- Viability % ([2]; MCF7, Conc. 25 µMol): 3.309%

Compound: CCOC(=O)CSc1nc(C)c2c(c1C#N)CC(C)(O)C(C(C)=O)C2c1ccc(N(C)C)cc1 (stereo not shown) [Compound 4, Ethyl 2-((7-Acetyl-4-cyano-1,6-dimethyl-6-hydroxy-8-(4-N,N-dimethylamino-phenyl)-5,6,7,8-tetrahydroisoquinolin-3-yl)thio)acetate]
- Toxicity % ([1]; A549, Conc. 0.0487 µMol): 1.8%
- Viability % ([1]; A549, Conc. 0.0487 µMol): 98.2%
- Toxicity % ([1]; A549, Conc. 0.0975 µMol): 2%
- Viability % ([1]; A549, Conc. 0.0975 µMol): 98%
- Toxicity % ([1]; A549, Conc. 0.195 µMol): 3.945%
- Viability % ([1]; A549, Conc. 0.195 µMol): 96.06%
- Toxicity % ([1]; A549, Conc. 0.391 µMol): 21.14%
- Viability % ([1]; A549, Conc. 0.391 µMol): 78.86%
- Toxicity % ([1]; A549, Conc. 0.781 µMol): 32.54%
- Viability % ([1]; A549, Conc. 0.781 µMol): 67.46%
- Toxicity % ([1]; A549, Conc. 1.562 µMol): 62.13%
- Viability % ([1]; A549, Conc. 1.562 µMol): 37.87%
- Toxicity % ([1]; A549, Conc. 3.125 µMol): 70.97%
- Viability % ([1]; A549, Conc. 3.125 µMol): 29.03%
- Toxicity % ([1]; A549, Conc. 6.25 µMol): 89.19%
- Viability % ([1]; A549, Conc. 6.25 µMol): 10.81%
- Toxicity % ([1]; A549, Conc. 12.5 µMol): 95.94%
- Viability % ([1]; A549, Conc. 12.5 µMol): 4.063%
- Toxicity % ([1]; A549, Conc. 25 µMol): 97.28%
- Viability % ([1]; A549, Conc. 25 µMol): 2.722%
- IC50 [1, 3]: 918 ± 2 nM
- IC50 [2]: 3074 ± 8 nM
- Toxicity % ([2]; MCF7, 0.0487 µMol): 0.03467%
- Viability % ([2]; MCF7, 0.0487 µMol): 99.94%
- Toxicity % ([2]; MCF7, 0.0975 µMol): 0.06434%
- Viability % ([2]; MCF7, 0.0975 µMol): 99.94%
- Toxicity % ([2]; MCF7, 0.195 µMol): 0.0817%
- Viability % ([2]; MCF7, 0.195 µMol): 99.92%
- Viability % ([2]; MCF7, 0.391 µMol): 100%
- Toxicity % ([2]; MCF7, 0.781 µMol): 7.925%
- Viability % ([2]; MCF7, 0.781 µMol): 92.08%
- Toxicity % ([2]; MCF7, 1.562 µMol): 23.41%
- Viability % ([2]; MCF7, 1.562 µMol): 76.59%
- Toxicity % ([2]; MCF7, 3.125 µMol): 36.89%
- Viability % ([2]; MCF7, 3.125 µMol): 63.11%
- Toxicity % ([2]; MCF7, 6.25 µMol): 82.07%
- Viability % ([2]; MCF7, 6.25 µMol): 17.93%
- Toxicity % ([2]; MCF7, 12.5 µMol): 91.75%
- Viability % ([2]; MCF7, 12.5 µMol): 8.252%
- Toxicity % ([2]; MCF7, 25 µMol): 96.81%
- Viability % ([2]; MCF7, 25 µMol): 3.186%
